Measurements as given in patent publication US20250213532A1, “5-METHOXY-N,N-[…][…] THE TREATMENT OF BIPOLAR DISORDER” (GH RESEARCH IRELAND LIMITED, priority 2022, published 2025).

What was measured:
[1] = system: patients with treatment-resistant major depressive disorder (TRD); assay: Phase 1/2 clinical trial of inhaled 5-MeO-DMT in TRD: MADRS; type: in vivo, human
Procedure: When assessing a clinical response at an early timepoint after drug administration (e.g. at 2 hours) based on endpoints which have been developed for a longer recall period (e.g. normally 7 days for the MADRS), a rational modification of such endpoint (e.g. changing the MADRS recall period to 2 hours and carrying forward the sleep item recorded at baseline before drug administration) may be applied. The same applies with respect to the BDRS (in particular the item sleep disturbance) and any other scale applied herein, unless a recall period is specifically indicated.
The Montgomery-Asberg Depression Rating Scale (MADRS) is a ten-item diagnostic questionnaire used to measure the severity of depressive episodes in patients with mood disorders (Montgomery, S. A., & Asberg, M. (1979). A new depression scale designed to be sensitive to change. The British Journal of Psychiatry 134, p.382). It was designed as an adjunct to the Hamilton Rating Scale for Depression (HAM-D), which would be more sensitive to the changes brought on by antidepressants and other forms of treatment. Higher MADRS score indicates more severe depression. The items considered are apparent sadness; reported sadness; inner tension; reduced sleep; reduced appetite; concentration difficulties; lassitude; inability to feel; pessimistic thoughts; and suicidal thoughts, and each item yields a score of 0 to 6. The overall score ranges from 0 to 60. Score ranges used herein for assessing the severity of depressive episodes in patients with bipolar disorder are 13-18 for “mildly ill”, 19-23 for “moderately ill”, 24-36 for “markedly ill”, 37-39 for “severely ill”, and 40 for “extremely ill” (Thase, 2021).
Patients were assigned to different groups.
This trial was designed in two parts.

[2] = system: Salmonella typhimurium TA98, TA100, TA1535 and TA1537; assay: Bacterial mutation test, Salmonella typhimurium; type: cell-based; conditions: up to 5000 µg/plate; absence and presence of rat liver S-9
Source text: These conditions included treatments at concentrations up to […] (the maximum recommended concentration according to current regulatory guidelines), in the absence and in the presence of a rat liver metabolic activation system (S-9).

[3] = Pharmacokinetics after single inhaled dose (LC-MS/MS); type: in vivo, human
Procedure: Blood samples were obtained at 1; 2; 4; 7; 10; 15; 20; 30; 45 min and 1; 1.5; 2; 3; 4 hours after administration.
PK parameters were generated by algebraic analysis of the concentration versus time plots for each individual. The analysis was carried out using the software Phoenix WinNonlin 6.3.

[4] = 12 mg n=4, 2 hours, baseline 13
[5] = 12 mg n=4, 2 hours, baseline 16

With `COc1ccc2[nH]cc(CCN(C)C)c2c1` [5-MeO-DMT] as the compound, how does the “MADRS Suicidal Thoughts percentage improvement” value ([1]; 12 mg n=4, 2 hours, baseline 8) read?
The value was 63%.

What about the “MADRS Suicidal Thoughts score (sum)” value ([1]; 12 mg n=4, 2 hours, baseline 8) of the same compound?
The value was 3.

What about the “MADRS Inner Tension percentage improvement” value [1, 4] of the same compound?
Its value is 85%.

And the “MADRS Inner Tension score (sum)” value [1, 4]?
Its value is 2.

What about the “MADRS Concentration Difficulties percentage improvement” value [1, 5] of the same compound?
The value was 56%.

And the “MADRS Concentration Difficulties score (sum)” value [1, 5]?
The value was 7.

What about the “MADRS Inability to Feel percentage improvement” value [1, 5] of the same compound?
Its value is 44%.

What about the “MADRS Inability to Feel score (sum)” value [1, 5] of the same compound?
The value was 9.

What about the “MADRS Lassitude percentage improvement” value [1, 5] of the same compound?
Its value is 38%.

What about the “MADRS Lassitude score (sum)” value [1, 5] of the same compound?
Its value is 10.

And the “MADRS Pessimistic Thoughts percentage improvement” value [1, 5]?
The value was 50%.

And the “MADRS Pessimistic Thoughts score (sum)” value [1, 5]?
The value was 8.

What about the “MADRS Suicidal Thoughts score (sum)” value ([1]; 12 mg n=4, Day 1, baseline 8) of the same compound?
The value was 5.

And the “MADRS Reduced Sleep score (sum)” value ([1]; 12 mg n=4, Day 1, baseline 12)?
The value was 10.

What about the “MADRS Inner Tension percentage improvement” value ([1]; 12 mg n=4, Day 1, baseline 13) of the same compound?
Its value is 77%.

And the “MADRS Inner Tension score (sum)” value ([1]; 12 mg n=4, Day 1, baseline 13)?
The value was 3.

What about the “MADRS Concentration Difficulties percentage improvement” value ([1]; 12 mg n=4, Day 1, baseline 16) of the same compound?
Its value is 88%.

What about the “MADRS Concentration Difficulties score (sum)” value ([1]; 12 mg n=4, Day 1, baseline 16) of the same compound?
Its value is 2.

What about the “MADRS Inability to Feel score (sum)” value ([1]; 12 mg n=4, Day 1, baseline 16) of the same compound?
The value was 1.

And the “MADRS Lassitude percentage improvement” value ([1]; 12 mg n=4, Day 1, baseline 16)?
Its value is 100%.

What about the “MADRS Lassitude score (sum)” value ([1]; 12 mg n=4, Day 1, baseline 16) of the same compound?
Its value is 0.

And the “MADRS Pessimistic Thoughts percentage improvement” value ([1]; 12 mg n=4, Day 1, baseline 16)?
Its value is 56%.

What about the “MADRS Pessimistic Thoughts score (sum)” value ([1]; 12 mg n=4, Day 1, baseline 16) of the same compound?
Its value is 7.

What about the “MADRS Suicidal Thoughts score (sum)” value ([1]; 12 mg n=4, Day 7, baseline 8) of the same compound?
Its value is 7.

What about the “MADRS Reduced Sleep score (sum)” value ([1]; 12 mg n=4, Day 7, baseline 12) of the same compound?
Its value is 6.

What about the “MADRS Inner Tension percentage improvement” value ([1]; 12 mg n=4, Day 7, baseline 13) of the same compound?
Its value is 62%.

What about the “MADRS Inner Tension score (sum)” value ([1]; 12 mg n=4, Day 7, baseline 13) of the same compound?
Its value is 5.

And the “MADRS Concentration Difficulties percentage improvement” value ([1]; 12 mg n=4, Day 7, baseline 16)?
The value was 81%.

And the “MADRS Concentration Difficulties score (sum)” value ([1]; 12 mg n=4, Day 7, baseline 16)?
The value was 3.

What about the “MADRS Inability to Feel score (sum)” value ([1]; 12 mg n=4, Day 7, baseline 16) of the same compound?
The value was 1.

And the “MADRS Lassitude percentage improvement” value ([1]; 12 mg n=4, Day 7, baseline 16)?
Its value is 81%.

What about the “MADRS Lassitude score (sum)” value ([1]; 12 mg n=4, Day 7, baseline 16) of the same compound?
Its value is 3.

What about the “MADRS Pessimistic Thoughts percentage improvement” value ([1]; 12 mg n=4, Day 7, baseline 16) of the same compound?
Its value is 50%.

And the “MADRS Pessimistic Thoughts score (sum)” value ([1]; 12 mg n=4, Day 7, baseline 16)?
The value was 8.

What about the “MADRS Suicidal Thoughts percentage improvement” value ([1]; IDR n=8, 2 hours, baseline 11) of the same compound?
Its value is 73%.

What about the “MADRS Suicidal Thoughts score (sum)” value ([1]; IDR n=8, 2 hours, baseline 11) of the same compound?
The value was 3.

What about the “MADRS Inner Tension percentage improvement” value ([1]; IDR n=8, 2 hours, baseline 26) of the same compound?
Its value is 58%.

What about the “MADRS Inner Tension score (sum)” value ([1]; IDR n=8, 2 hours, baseline 26) of the same compound?
The value was 11.

What about the “MADRS Lassitude percentage improvement” value ([1]; IDR n=8, 2 hours, baseline 27) of the same compound?
Its value is 63%.

And the “MADRS Lassitude score (sum)” value ([1]; IDR n=8, 2 hours, baseline 27)?
The value was 10.

What about the “MADRS Pessimistic Thoughts percentage improvement” value ([1]; IDR n=8, 2 hours, baseline 28) of the same compound?
The value was 75%.

And the “MADRS Pessimistic Thoughts score (sum)” value ([1]; IDR n=8, 2 hours, baseline 28)?
Its value is 7.

What about the “MADRS Concentration Difficulties percentage improvement” value ([1]; IDR n=8, 2 hours, baseline 30) of the same compound?
The value was 63%.

And the “MADRS Concentration Difficulties score (sum)” value ([1]; IDR n=8, 2 hours, baseline 30)?
The value was 11.

What about the “MADRS Inability to Feel percentage improvement” value ([1]; IDR n=8, 2 hours, baseline 36) of the same compound?
The value was 67%.

What about the “MADRS Inability to Feel score (sum)” value ([1]; IDR n=8, 2 hours, baseline 36) of the same compound?
The value was 12.

And the “MADRS Suicidal Thoughts score (sum)” value ([1]; IDR n=8, Day 1, baseline 11)?
Its value is 1.

And the “MADRS Reduced Sleep score (sum)” value ([1]; IDR n=8, Day 1, baseline 25)?
Its value is 12.

What about the “MADRS Inner Tension percentage improvement” value ([1]; IDR n=8, Day 1, baseline 26) of the same compound?
The value was 77%.

And the “MADRS Inner Tension score (sum)” value ([1]; IDR n=8, Day 1, baseline 26)?
The value was 6.

And the “MADRS Lassitude percentage improvement” value ([1]; IDR n=8, Day 1, baseline 27)?
Its value is 81%.

And the “MADRS Lassitude score (sum)” value ([1]; IDR n=8, Day 1, baseline 27)?
Its value is 5.

And the “MADRS Pessimistic Thoughts percentage improvement” value ([1]; IDR n=8, Day 1, baseline 28)?
The value was 86%.

What about the “MADRS Pessimistic Thoughts score (sum)” value ([1]; IDR n=8, Day 1, baseline 28) of the same compound?
The value was 4.

And the “MADRS Concentration Difficulties percentage improvement” value ([1]; IDR n=8, Day 1, baseline 30)?
Its value is 97%.

And the “MADRS Concentration Difficulties score (sum)” value ([1]; IDR n=8, Day 1, baseline 30)?
Its value is 1.

What about the “MADRS Inability to Feel score (sum)” value ([1]; IDR n=8, Day 1, baseline 36) of the same compound?
Its value is 2.

What about the “MADRS Suicidal Thoughts score (sum)” value ([1]; IDR n=8, Day 7, baseline 11) of the same compound?
Its value is 3.

What about the “MADRS Reduced Sleep score (sum)” value ([1]; IDR n=8, Day 7, baseline 25) of the same compound?
Its value is 9.

And the “MADRS Inner Tension percentage improvement” value ([1]; IDR n=8, Day 7, baseline 26)?
Its value is 54%.

And the “MADRS Inner Tension score (sum)” value ([1]; IDR n=8, Day 7, baseline 26)?
The value was 12.

What about the “MADRS Lassitude percentage improvement” value ([1]; IDR n=8, Day 7, baseline 27) of the same compound?
Its value is 89%.

And the “MADRS Lassitude score (sum)” value ([1]; IDR n=8, Day 7, baseline 27)?
The value was 3.

What about the “MADRS Pessimistic Thoughts percentage improvement” value ([1]; IDR n=8, Day 7, baseline 28) of the same compound?
Its value is 89%.

And the “MADRS Pessimistic Thoughts score (sum)” value ([1]; IDR n=8, Day 7, baseline 28)?
Its value is 3.

What about the “MADRS Concentration Difficulties percentage improvement” value ([1]; IDR n=8, Day 7, baseline 30) of the same compound?
The value was 70%.

What about the “MADRS Concentration Difficulties score (sum)” value ([1]; IDR n=8, Day 7, baseline 30) of the same compound?
The value was 9.

What about the “MADRS Inability to Feel score (sum)” value ([1]; IDR n=8, Day 7, baseline 36) of the same compound?
The value was 6.

And the Induction of mutation [2]?
The Induction of mutation was “did not induce mutation”.

And the “Pharmacokinetics under uptitration dosing schemes vs single dose” value ([3]; dosing schemes relying on uptitration)?
The value was “Substantially similar results”.

And the “Accumulation upon repeated administration” value ([3]; repeated administration within a time frame of 1 to 4 hours)?
The value was “No accumulation”.
